# Measured values reported in US20230265151A1, “GIP/GLP1 CO-AGONIST COMPOUNDS” (priority 2020, published 2023).
# Read-outs that look alike come from different tables or passages of the source.
# Assays:
# Type in all cases: cell-based
# hGLP-1R = hGLP-1R (Homo sapiens, UniProt P43220); assay: Functional cAMP formation (HTRF) in HEK-293 clonal cells expressing hGLP-1R, 0.1% bovine casein, without or with 1.0% human serum albumin; parameters: expressed in transfected cells; settings: for EC50: cAMP, 0.1% bovine casein (no human serum albumin), geometric mean
# Method in brief: (§1)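 Readings of the HTRF 665/620 nm ratio, which falls as cAMP rises, were converted to nM cAMP using a standard curve after 30 min peptide exposure at 37° C.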
# hGIPR = molecular target: T1, hGIPR (Homo sapiens, UniProt P48546); assay: Functional cAMP formation (HTRF) in HEK-293 clonal cells expressing hGIPR, 0.1% bovine casein, without or with 1.0% human serum albumin; settings: for EC50: cAMP, 0.1% bovine casein (no human serum albumin), geometric mean
# T1 construct: expressed in transfected cells
# T1 sequence (P48546 22-466): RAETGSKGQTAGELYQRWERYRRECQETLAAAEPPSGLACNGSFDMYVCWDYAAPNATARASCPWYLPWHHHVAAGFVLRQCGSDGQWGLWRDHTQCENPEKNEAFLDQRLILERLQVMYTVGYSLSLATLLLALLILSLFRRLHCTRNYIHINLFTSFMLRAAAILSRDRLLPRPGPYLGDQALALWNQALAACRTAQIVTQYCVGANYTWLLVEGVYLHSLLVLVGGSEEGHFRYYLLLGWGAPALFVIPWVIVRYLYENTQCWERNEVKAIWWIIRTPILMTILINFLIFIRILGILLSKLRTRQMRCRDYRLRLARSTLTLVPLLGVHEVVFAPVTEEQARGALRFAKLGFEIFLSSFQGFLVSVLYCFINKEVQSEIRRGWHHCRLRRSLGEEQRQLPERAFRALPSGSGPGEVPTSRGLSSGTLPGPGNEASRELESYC
# Method in brief: as §1
# hGCGR = molecular target: T2, hGCGR (Homo sapiens, UniProt P47871); assay: Functional cAMP formation (HTRF) in HEK-293 clonal cells expressing hGCGR, 0.1% bovine casein, without or with 1.0% human serum albumin; settings: cAMP
# T2 construct: expressed in transfected cells
# Method in brief: as §1
# [1] = hGLP-1R EC50, nM (SEM, n), 37° C.
# [2] = HEK293, read-out: hGIPR Emax, % ± SEM, cAMP, 37° C., 0.1% bovine casein and 1.0% human serum albumin, percent of maximal response to GIP(1-42)NH2
# [3] = hGIPR EC50, nM (SEM, n), 37° C.
# [4] = hGCGR EC50, nM (SEM, n), 37° C., 0.1% bovine casein (no human serum albumin), geometric mean
# [5] = hGCGR EC50, nM (SEM, n), 37° C., 0.1% bovine casein and 1.0% human serum albumin, geometric mean (SEM, n)
# Sequence of hGLP-1R (P43220 24-463): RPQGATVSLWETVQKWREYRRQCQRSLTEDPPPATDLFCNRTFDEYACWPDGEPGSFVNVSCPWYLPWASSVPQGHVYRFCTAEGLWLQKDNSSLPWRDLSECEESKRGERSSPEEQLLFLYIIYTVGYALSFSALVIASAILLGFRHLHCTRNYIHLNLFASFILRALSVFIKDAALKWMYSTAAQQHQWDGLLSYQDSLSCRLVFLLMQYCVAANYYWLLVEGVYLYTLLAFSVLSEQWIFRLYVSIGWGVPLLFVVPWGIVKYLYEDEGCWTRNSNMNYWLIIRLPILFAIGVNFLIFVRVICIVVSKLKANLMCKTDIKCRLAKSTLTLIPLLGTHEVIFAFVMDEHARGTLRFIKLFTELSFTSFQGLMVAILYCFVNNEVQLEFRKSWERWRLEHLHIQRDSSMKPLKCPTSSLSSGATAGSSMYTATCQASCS
# T2 sequence (P47871 26-477): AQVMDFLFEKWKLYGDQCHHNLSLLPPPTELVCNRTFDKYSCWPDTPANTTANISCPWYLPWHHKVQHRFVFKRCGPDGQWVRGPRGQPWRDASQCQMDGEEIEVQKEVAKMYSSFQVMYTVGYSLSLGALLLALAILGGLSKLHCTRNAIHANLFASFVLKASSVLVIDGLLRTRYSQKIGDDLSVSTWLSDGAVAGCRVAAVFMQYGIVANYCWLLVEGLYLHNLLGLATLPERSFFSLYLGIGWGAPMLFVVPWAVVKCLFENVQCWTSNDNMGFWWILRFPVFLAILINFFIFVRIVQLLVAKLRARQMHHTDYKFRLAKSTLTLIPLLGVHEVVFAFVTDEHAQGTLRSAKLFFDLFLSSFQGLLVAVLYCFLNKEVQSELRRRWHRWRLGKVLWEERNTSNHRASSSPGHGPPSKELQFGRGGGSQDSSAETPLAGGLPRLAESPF
smiles,measurement,setting,value
CC[C@H](C)[C@H](NC(=O)[C@H](CC(C)C)NC(=O)[C@](C)(Cc1ccc(O)cc1)NC(=O)[C@H](CCC(=O)O)NC(=O)[C@@H](NC(=O)[C@H](Cc1ccccc1)NC(=O)[C@H](CCC(=O)O)NC(=O)C(C)(C)NC(=O)[C@H](CCC(N)=O)NC(=O)[C@H](C)NC(=O)[C@H](CCCCNC(=O)COCCOCCNC(=O)COCCOCCNC(=O)CC[C@H](NC(=O)CCCCCCCCCCCCC(=O)O)C(=O)O)NC(=O)[C@H](CCCN)NC(=O)[C@H](CC(=O)O)NC(=O)[C@H](CC(C)C)NC(=O)[C@](C)(CC(C)C)NC(=O)[C@@H](NC(=O)[C@H](CO)NC(=O)[C@H](Cc1ccncc1)NC(=O)[C@H](CC(=O)O)NC(=O)[C@H](CO)NC(=O)[C@@H](NC(=O)[C@](C)(Cc1ccccc1F)NC(=O)[C@@H](NC(=O)CNC(=O)[C@H](CCC(=O)O)NC(=O)C(C)(C)NC(=O)[C@@H](N)Cc1ccc(O)cc1)[C@@H](C)O)[C@@H](C)O)[C@@H](C)CC)[C@@H](C)CC)C(=O)N[C@@H](CCC(=O)O)C(=O)NCC(=O)NCC(=O)N[C@@H](CCCCNC(=O)COCCOCCNC(=O)COCCOCCNC(=O)CC[C@H](NC(=O)CCCCCCCCCCCCC(=O)O)C(=O)O)C(=O)N[C@@H](CO)C(=O)N[C@@H](CO)C(=O)NCC(=O)N[C@@H](C)C(=O)N1CCC[C@H]1C(=O)N1CCC[C@H]1C(=O)N1CCC[C@H]1C(=O)N[C@@H](CO)C(N)=O [Example 158],Emax,"hGLP-1R; HEK293, read-out: hGLP-1R Emax, % ± SEM, percent of maximal response to GLP-1(7-36)NH2, 37° C., 0.1% bovine casein, arithmetic mean",87.2%
same,Emax,"hGIPR; HEK293, read-out: hGIPR Emax, % ± SEM, percent of maximal response to GIP(1-42)NH2, 37° C., 0.1% bovine casein, arithmetic mean",93.4%
same,EC50,"hGIPR; hGIPR EC50, nM (SEM, n), incubated at 37° C.",0.0204 nM
same,EC50,"hGCGR; hGCGR EC50, nM (SEM, n), incubated at 37° C., 0.1% bovine casein (no human serum albumin), geometric mean",> 9950 nM
CC[C@H](C)[C@H](NC(=O)[C@H](CCCN)NC(=O)[C@H](CC(=O)O)NC(=O)[C@H](CC(C)C)NC(=O)[C@](C)(CC(C)C)NC(=O)[C@@H](NC(=O)C(C)(C)NC(=O)[C@H](Cc1ccc(O)cc1)NC(=O)[C@H](CC(=O)O)NC(=O)[C@H](CO)NC(=O)[C@@H](NC(=O)[C@](C)(Cc1ccccc1F)NC(=O)[C@@H](NC(=O)CNC(=O)[C@H](CCC(=O)O)NC(=O)C(C)(C)NC(=O)[C@@H](N)Cc1ccc(O)cc1)[C@@H](C)O)[C@@H](C)O)[C@@H](C)CC)C(=O)N[C@@H](C)C(=O)N[C@@H](CCC(N)=O)C(=O)NC(C)(C)C(=O)N[C@@H](CCC(=O)O)C(=O)N[C@@H](Cc1ccccc1)C(=O)N[C@H](C(=O)N[C@@H](CCCCNC(=O)COCCOCCNC(=O)COCCOCCNC(=O)COCCOCCNC(=O)CC[C@H](NC(=O)CCCCCCCCCOc1ccc(C(=O)O)cc1)C(=O)O)C(=O)N[C@@](C)(Cc1ccc(O)cc1)C(=O)N[C@@H](CC(C)C)C(=O)N[C@H](C(=O)N[C@@H](CCCCNC(=O)COCCOCCNC(=O)COCCOCCNC(=O)COCCOCCNC(=O)CC[C@H](NC(=O)CCCCCCCCCOc1ccc(C(=O)O)cc1)C(=O)O)C(=O)NCC(=O)NCC(=O)N1CCC[C@H]1C(=O)N[C@@H](CO)C(=O)N[C@@H](CO)C(=O)NCC(=O)N[C@@H](C)C(=O)N1CCC[C@H]1C(=O)N1CCC[C@H]1C(=O)N1CCC[C@H]1C(=O)N[C@@H](CO)C(N)=O)[C@@H](C)CC)[C@@H](C)CC [Example 346],Emax,"hGLP-1R; HEK293, read-out: hGLP-1R Emax, % ± SEM, cAMP, 37° C., 0.1% bovine casein and 1.0% human serum albumin, percent of maximal response to GLP-1(7-36)NH2",97.7%
same,EC50,hGLP-1R; [1],0.329 nM
same,Emax,hGIPR; [2],83.9%
same,Emax,"hGIPR; HEK293, read-out: hGIPR Emax, % ± SEM, cAMP, 37° C., 0.1% bovine casein, percent of maximal response to GIP(1-42)NH2, arithmetic mean",96.6%
same,EC50,hGIPR; [3],0.0194 nM
same,EC50,hGCGR; [4],> 9950 nM
same,EC50,hGCGR; [5],> 9950 nM
CC[C@H](C)[C@H](NC(=O)[C@H](CC(C)C)NC(=O)[C@](C)(Cc1ccc(O)cc1)NC(=O)[C@@H](CCC(=O)O)NC(=O)[C@@H](NC(=O)[C@H](Cc1ccccc1)NC(=O)[C@H](CCC(=O)O)NC(=O)C(C)(C)NC(=O)[C@H](CCC(N)=O)NC(=O)[C@H](C)NC(=O)[C@H](CCCCNC(=O)COCCOCCNC(=O)CC[C@H](NC(=O)CCCCCCCCCCCCC(=O)O)C(=O)O)NC(=O)[C@H](CCCN)NC(=O)[C@H](CC(=O)O)NC(=O)[C@H](CC(C)C)NC(=O)[C@](C)(CC(C)C)NC(=O)[C@@H](NC(=O)C(C)(C)NC(=O)[C@H](Cc1ccc(O)cc1)NC(=O)[C@H](CC(=O)O)NC(=O)[C@H](CO)NC(=O)[C@@H](NC(=O)[C@](C)(Cc1ccccc1F)NC(=O)[C@@H](NC(=O)CNC(=O)[C@H](CCC(=O)O)NC(=O)C(C)(C)NC(=O)[C@@H](N)Cc1ccc(O)cc1)[C@@H](C)O)[C@@H](C)O)[C@@H](C)CC)[C@@H](C)CC)C(=O)N[C@@H](CCC(=O)O)C(=O)NCC(=O)NCC(=O)N1CCC[C@H]1C(=O)N[C@@H](CO)C(=O)N[C@@H](CO)C(=O)NCC(=O)N[C@@H](C)C(=O)N1CCC[C@H]1C(=O)N1CCC[C@H]1C(=O)N1CCC[C@H]1C(=O)N[C@@H](CO)C(=O)N[C@@H](CCCCNC(=O)COCCOCCNC(=O)CC[C@H](NC(=O)CCCCCCCCCCCCC(=O)O)C(=O)O)C(N)=O [Example 368],EC50,"hGLP-1R; 37° C., read-out: hGLP-1R EC50, nM (SEM, n)",0.411 nM
same,Emax,"hGIPR; HEK293, cAMP, 37° C., 0.1% bovine casein, percent of maximal response to GIP(1-42)NH2, arithmetic mean, read-out: hGIPR Emax, % ± SEM",105%
same,EC50,"hGIPR; 37° C., read-out: hGIPR EC50, nM (SEM, n)",0.0271 nM
same,EC50,"hGCGR; 37° C., 0.1% bovine casein (no human serum albumin), geometric mean, read-out: hGCGR EC50, nM (SEM, n)",> 9950 nM
CC[C@H](C)[C@H](NC(=O)[C@H](CCCN)NC(=O)[C@H](CC(=O)O)NC(=O)[C@H](CC(C)C)NC(=O)[C@](C)(CC(C)C)NC(=O)[C@@H](NC(=O)C(C)(C)NC(=O)[C@@H](NC(=O)[C@H](CC(=O)O)NC(=O)[C@H](CO)NC(=O)[C@@H](NC(=O)[C@](C)(Cc1ccccc1F)NC(=O)[C@@H](NC(=O)CNC(=O)[C@H](CCC(=O)O)NC(=O)C(C)(C)NC(=O)[C@@H](N)Cc1ccc(O)cc1)[C@@H](C)O)[C@@H](C)O)C(C)C)[C@@H](C)CC)C(=O)N[C@@H](C)C(=O)N[C@@H](CCC(N)=O)C(=O)NC(C)(C)C(=O)N[C@@H](CCC(=O)O)C(=O)N[C@@H](Cc1ccccc1)C(=O)N[C@H](C(=O)N[C@@H](CCCCNC(=O)COCCOCCNC(=O)CC[C@H](NC(=O)CCCCCCCCCOc1ccc(C(=O)O)cc1)C(=O)O)C(=O)N[C@@](C)(Cc1ccc(O)cc1)C(=O)N[C@@H](CC(C)C)C(=O)N[C@H](C(=O)N[C@@H](CCCCNC(=O)COCCOCCNC(=O)CC[C@H](NC(=O)CCCCCCCCCOc1ccc(C(=O)O)cc1)C(=O)O)C(=O)NCC(=O)NCC(=O)N1CCC[C@H]1C(=O)N[C@@H](CO)C(=O)N[C@@H](CO)C(=O)NCC(=O)N[C@@H](C)C(=O)N1CCC[C@H]1C(=O)N1CCC[C@H]1C(=O)N1CCC[C@H]1C(=O)N[C@@H](CO)C(N)=O)[C@@H](C)CC)[C@@H](C)CC [Example 381],Emax,"hGLP-1R; HEK293, read-out: hGLP-1R Emax, % ± SEM, cAMP, 37° C., 0.1% bovine casein, percent of maximal response to GLP-1(7-36)NH2, arithmetic mean",105%
same,EC50,hGLP-1R; [1],1.1 nM
same,Emax,hGIPR; [2],90.3%
same,EC50,hGIPR; [3],0.0784 nM
same,EC50,hGCGR; [4],> 9950 nM
same,EC50,hGCGR; [5],> 9950 nM
